From ChEMBL document CHEMBL4321865, “Discovery of Novel Inhibitors of LpxC Displaying Potent in Vitro Activity against Gram-Negative Bacteria” (J Med Chem, 2020)
Values after ≈ are worked out from the molar mass of the structure shown.

Tests used:
[1] = system: T1, UDP-3-O-acyl-N-acetylglucosamine deacetylase (Escherichia coli K-12), P0A725 [C125S]
T1 sequence (whole entry): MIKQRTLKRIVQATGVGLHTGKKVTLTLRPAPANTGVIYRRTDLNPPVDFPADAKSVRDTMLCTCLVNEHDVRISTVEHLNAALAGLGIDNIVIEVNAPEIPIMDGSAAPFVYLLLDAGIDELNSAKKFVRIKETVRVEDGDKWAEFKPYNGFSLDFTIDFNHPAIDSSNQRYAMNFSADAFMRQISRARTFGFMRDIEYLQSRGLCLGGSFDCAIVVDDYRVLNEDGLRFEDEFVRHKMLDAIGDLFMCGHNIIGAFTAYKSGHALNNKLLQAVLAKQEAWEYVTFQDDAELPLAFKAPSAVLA

[2] = system: T2, UDP-3-O-acyl-N-acetylglucosamine deacetylase (Pseudomonas aeruginosa (strain ATCC 15692 / PAO1 / 1C / PRS 101 / LMG12228)), P47205 [C40S]
T2 sequence (whole entry): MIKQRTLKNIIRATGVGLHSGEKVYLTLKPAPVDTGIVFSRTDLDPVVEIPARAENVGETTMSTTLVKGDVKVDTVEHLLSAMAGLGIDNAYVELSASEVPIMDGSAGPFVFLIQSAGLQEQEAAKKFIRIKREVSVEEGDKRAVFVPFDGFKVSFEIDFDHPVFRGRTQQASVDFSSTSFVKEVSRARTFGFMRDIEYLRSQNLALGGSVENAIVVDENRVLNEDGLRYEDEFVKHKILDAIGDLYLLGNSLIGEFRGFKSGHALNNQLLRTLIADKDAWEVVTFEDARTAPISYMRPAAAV

physchem [3] = details: n-octanol/phosphate buffered saline, pH 7.4
Description: n-Octanol/phosphate buffered saline partition coefficient, log D of the compound at pH 7.4 by LC-UV method

physchem [4] = details: DMSO, pH 7
Description: Solubility of the compound in DMSO at pH 7 incubated for 24 hrs by LC-UV method

physchem [5] = details: DMSO, pH 9
Description: Solubility of the compound in DMSO at pH 9 incubated for 24 hrs by LC-UV method

physchem [6] = details: DMSO, pH 4
Description: Solubility of the compound in DMSO at pH 4 incubated for 24 hrs by LC-UV method

Escherichia coli = assay: microbe, parasite or virus in culture; details: ATCC 25922
Description: Antibacterial activity against wild-type Escherichia coli ATCC 25922 by broth microdilution method

Klebsiella pneumoniae = assay: microbe, parasite or virus in culture; details: T 6474
Description: Antibacterial activity against multi-drug resistant Klebsiella pneumoniae T 6474 by broth microdilution method

Pseudomonas aeruginosa [7] = assay: microbe, parasite or virus in culture; details: ATCC 27853
Description: Antimicrobial activity against Pseudomonas aeruginosa ATCC 27853 by broth microdilution method

Pseudomonas aeruginosa [8] = assay: microbe, parasite or virus in culture; details: PAO1
Description: Antimicrobial activity against wild-type Pseudomonas aeruginosa PAO1 by broth microdilution method

In the case of `C[C@@](CCN1Cc2cc(C#Cc3ccc(CN4CCOCC4)cc3)ccc2C1=O)(C(=O)NO)S(C)(=O)=O`, the ΔTm [1] is reported as 11 °C, the ΔTm [2] is reported as 13.8 °C and the logD (physchem [3]) is reported as 1.8. For the same molecule, the solubility at 24 h (physchem [4]) was 148 µg/mL (≈ 282 µM), the solubility at 24 h (physchem [5]) was greater than 890 µg/mL and the solubility at 24 h (physchem [6]) was greater than 890 µg/mL. The MIC (Escherichia coli) was 0.12 µg/mL (≈ 0.228 µM), the MIC (Klebsiella pneumoniae) was 0.5 µg/mL (≈ 0.951 µM) and the MIC (Pseudomonas aeruginosa [7]) was 2 µg/mL (≈ 3.8 µM). The MIC (Pseudomonas aeruginosa [8]) was 2 µg/mL (≈ 3.8 µM).
In the case of `C[C@@](CCN1Cc2cc(C#CC#CCNS(C)(=O)=O)cn2C1=O)(C(=O)NO)S(C)(=O)=O`, the ΔTm [1] is reported as 8 °C, the ΔTm [2] is reported as 10.8 °C and the MIC (Escherichia coli) is reported as 2 µg/mL (≈ 4.25 µM). For the same molecule, the MIC (Klebsiella pneumoniae) was 4 µg/mL (≈ 8.5 µM), the MIC (Pseudomonas aeruginosa [7]) was 4 µg/mL (≈ 8.5 µM) and the MIC (Pseudomonas aeruginosa [8]) was 1 µg/mL (≈ 2.13 µM).
Work on `C[C@@](CCN1Cc2cc(C#Cc3ccc([C@H]4C[C@@H]4CO)cc3)cn2C1=O)(C(=O)NO)S(C)(=O)=O` yielded a ΔTm [1] of 12.1 °C, a ΔTm [2] of 13.4 °C and a logD (physchem [3]) of 1.4. For the same molecule, the solubility at 24 h (physchem [4]) was 24 µg/mL (≈ 49.4 µM), the solubility at 24 h (physchem [5]) was 170 µg/mL (≈ 350 µM) and the solubility at 24 h (physchem [6]) was 11 µg/mL (≈ 22.7 µM). It also gave an MIC (Escherichia coli) of no more than 0.06 µg/mL, an MIC (Klebsiella pneumoniae) of no more than 0.06 µg/mL and an MIC (Pseudomonas aeruginosa [7]) of 0.5 µg/mL (≈ 1.03 µM). It also gave an MIC (Pseudomonas aeruginosa [8]) of 1 µg/mL (≈ 2.06 µM).
`CC(C)(O)c1ccc(C#Cc2cc3n(c2)C(=O)N(CC[C@](C)(C(=O)NO)S(C)(=O)=O)C3)cc1` gave a ΔTm [1] of 11.8 °C, a ΔTm [2] of 13.7 °C and a logD (physchem [3]) of 1.9. For the same molecule, the solubility at 24 h (physchem [4]) was 110 µg/mL (≈ 232 µM), the solubility at 24 h (physchem [5]) was 556 µg/mL (≈ 1170 µM) and the solubility at 24 h (physchem [6]) was 70 µg/mL (≈ 148 µM). For the same molecule, the MIC (Escherichia coli) was 0.12 µg/mL (≈ 0.253 µM), the MIC (Klebsiella pneumoniae) was 0.25 µg/mL (≈ 0.528 µM) and the MIC (Pseudomonas aeruginosa [7]) was 0.5 µg/mL (≈ 1.06 µM). For the same molecule, the MIC (Pseudomonas aeruginosa [8]) was 1 µg/mL (≈ 2.11 µM).
In the case of `C[C@@](CCN1Cc2cc(C#Cc3ccc([C@@H]4C[C@H]4CO)cc3)cn2C1=O)(C(=O)NO)S(C)(=O)=O`, the ΔTm [1] is reported as 12.1 °C, the ΔTm [2] is reported as 13.4 °C and the logD (physchem [3]) is reported as 2. For the same molecule, the solubility at 24 h (physchem [4]) was 112 µg/mL (≈ 231 µM), the solubility at 24 h (physchem [5]) was 568 µg/mL (≈ 1170 µM) and the solubility at 24 h (physchem [6]) was 73 µg/mL (≈ 150 µM). It also gave an MIC (Escherichia coli) of no more than 0.06 µg/mL, an MIC (Klebsiella pneumoniae) of no more than 0.06 µg/mL and an MIC (Pseudomonas aeruginosa [7]) of 0.5 µg/mL (≈ 1.03 µM). The MIC (Pseudomonas aeruginosa [8]) was 1 µg/mL (≈ 2.06 µM).
In the case of `C[C@@](CCN1Cc2cc(C#Cc3ccc(C4(CO)CC4)cc3)cn2C1=O)(C(=O)NO)S(C)(=O)=O`, the ΔTm [1] is reported as 11.8 °C, the ΔTm [2] is reported as 13.6 °C and the logD (physchem [3]) is reported as 2. For the same molecule, the solubility at 24 h (physchem [4]) was 7 µg/mL (≈ 14.4 µM), the solubility at 24 h (physchem [5]) was 56 µg/mL (≈ 115 µM) and the solubility at 24 h (physchem [6]) was 5 µg/mL (≈ 10.3 µM). For the same molecule, the MIC (Escherichia coli) was 0.12 µg/mL (≈ 0.247 µM), the MIC (Klebsiella pneumoniae) was 0.25 µg/mL (≈ 0.515 µM) and the MIC (Pseudomonas aeruginosa [7]) was 0.5 µg/mL (≈ 1.03 µM). The MIC (Pseudomonas aeruginosa [8]) was 0.5 µg/mL (≈ 1.03 µM).
For `C[C@@](CCN1Cc2cc(C#CC#CC3(O)COC3)cn2C1=O)(C(=O)NO)S(C)(=O)=O`, the ΔTm [1] was 8.8 °C, the ΔTm [2] was 11.3 °C and the logD (physchem [3]) was 0.3. It also gave a solubility at 24 h (physchem [4]) greater than 740 µg/mL, a solubility at 24 h (physchem [5]) greater than 740 µg/mL and a solubility at 24 h (physchem [6]) greater than 740 µg/mL. It also gave an MIC (Escherichia coli) of 1 µg/mL (≈ 2.3 µM), an MIC (Klebsiella pneumoniae) of 2 µg/mL (≈ 4.59 µM) and an MIC (Pseudomonas aeruginosa [7]) of 2 µg/mL (≈ 4.59 µM). It also gave an MIC (Pseudomonas aeruginosa [8]) of 4 µg/mL (≈ 9.19 µM).
With `C[C@@](CCN1Cc2cc(C#CC#CC3(CO)CC3)sc2C1=O)(C(=O)NO)S(C)(=O)=O` the ΔTm [1] was 10.9 °C, the ΔTm [2] was 14.2 °C and the logD (physchem [3]) was 1.2. The solubility at 24 h (physchem [4]) was greater than 760 µg/mL, the solubility at 24 h (physchem [5]) was greater than 760 µg/mL and the solubility at 24 h (physchem [6]) was 443 µg/mL (≈ 983 µM). The MIC (Escherichia coli) was 1 µg/mL (≈ 2.22 µM), the MIC (Klebsiella pneumoniae) was 1 µg/mL (≈ 2.22 µM) and the MIC (Pseudomonas aeruginosa [7]) was 1 µg/mL (≈ 2.22 µM). The MIC (Pseudomonas aeruginosa [8]) was 1 µg/mL (≈ 2.22 µM).
Molecule `C[C@@](CCN1Cc2cc(C#Cc3ccc([C@H](O)CO)cc3)sc2C1=O)(C(=O)NO)S(C)(=O)=O` has a ΔTm [1] of 12.1 °C, a ΔTm [2] of 14.3 °C and a logD (physchem [3]) of 0.8. For the same molecule, the solubility at 24 h (physchem [4]) was 300 µg/mL (≈ 609 µM), the solubility at 24 h (physchem [5]) was 814 µg/mL (≈ 1650 µM) and the solubility at 24 h (physchem [6]) was 230 µg/mL (≈ 467 µM). It also gave an MIC (Escherichia coli) of 0.5 µg/mL (≈ 1.02 µM), an MIC (Klebsiella pneumoniae) of 1 µg/mL (≈ 2.03 µM) and an MIC (Pseudomonas aeruginosa [7]) of 1 µg/mL (≈ 2.03 µM). It also gave an MIC (Pseudomonas aeruginosa [8]) of 2 µg/mL (≈ 4.06 µM).
For `CC(C)(O)c1ccc(C#Cc2ccc3c(c2)CN(CC[C@](C)(C(=O)NO)S(C)(=O)=O)C3=O)cc1`, the ΔTm [1] was 9.5 °C, the ΔTm [2] was 12.8 °C and the logD (physchem [3]) was 2.3. The solubility at 24 h (physchem [4]) was 7 µg/mL (≈ 14.4 µM), the solubility at 24 h (physchem [5]) was 136 µg/mL (≈ 281 µM) and the solubility at 24 h (physchem [6]) was 4 µg/mL (≈ 8.25 µM). The MIC (Escherichia coli) was 0.25 µg/mL (≈ 0.516 µM), the MIC (Klebsiella pneumoniae) was 0.5 µg/mL (≈ 1.03 µM) and the MIC (Pseudomonas aeruginosa [7]) was 4 µg/mL (≈ 8.25 µM). The MIC (Pseudomonas aeruginosa [8]) was 8 µg/mL (≈ 16.5 µM).
Work on `C[C@@](CCN1Cc2cc(C#Cc3ccc(CN4CCOCC4)cc3)sc2C1=O)(C(=O)NO)S(C)(=O)=O` yielded a ΔTm [1] of 13 °C, a ΔTm [2] of 15.5 °C and a logD (physchem [3]) of 1.8. For the same molecule, the solubility at 24 h (physchem [4]) was 155 µg/mL (≈ 292 µM), the solubility at 24 h (physchem [5]) was 571 µg/mL (≈ 1070 µM) and the solubility at 24 h (physchem [6]) was greater than 900 µg/mL. The MIC (Escherichia coli) was no more than 0.06 µg/mL, the MIC (Klebsiella pneumoniae) was 0.12 µg/mL (≈ 0.226 µM) and the MIC (Pseudomonas aeruginosa [7]) was 1 µg/mL (≈ 1.88 µM). It also gave an MIC (Pseudomonas aeruginosa [8]) of 1 µg/mL (≈ 1.88 µM).
Molecule `C[C@@](CCN1Cc2cc(C#Cc3ccc(C4(O)COC4)cc3)sc2C1=O)(C(=O)NO)S(C)(=O)=O` has a ΔTm [1] of 11.4 °C, a ΔTm [2] of 14.3 °C and a logD (physchem [3]) of 1.5. For the same molecule, the solubility at 24 h (physchem [4]) was greater than 850 µg/mL, the solubility at 24 h (physchem [5]) was greater than 850 µg/mL and the solubility at 24 h (physchem [6]) was 114 µg/mL (≈ 226 µM). It also gave an MIC (Escherichia coli) of 0.12 µg/mL (≈ 0.238 µM), an MIC (Klebsiella pneumoniae) of 0.5 µg/mL (≈ 0.991 µM) and an MIC (Pseudomonas aeruginosa [7]) of 0.5 µg/mL (≈ 0.991 µM). It also gave an MIC (Pseudomonas aeruginosa [8]) of 2 µg/mL (≈ 3.96 µM).
In the case of `C[C@@](CCN1Cc2cc(C#CC#C[C@H](O)CO)cn2C1=O)(C(=O)NO)S(C)(=O)=O`, the ΔTm [1] is reported as 7.3 °C, the ΔTm [2] is reported as 10.3 °C and the MIC (Escherichia coli) is reported as 8 µg/mL (≈ 18.9 µM). The MIC (Klebsiella pneumoniae) was 8 µg/mL (≈ 18.9 µM), the MIC (Pseudomonas aeruginosa [7]) was 4 µg/mL (≈ 9.45 µM) and the MIC (Pseudomonas aeruginosa [8]) was 8 µg/mL (≈ 18.9 µM).
